We go through eleven compounds from ChEMBL document CHEMBL1201862, “PubChem BioAssay data set” (2004).

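The compound was tested at five concentrations on cells cultured in 96-well plates, with a 48-hour exposure period. Here, GI50 denotes the concentration required for 50% inhibition of growth.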 Calls of active or inactive are those of the source. No stated cut-off is given here; in the data, active = GI50 up to about 1.1 µM and inactive = higher.

Among the test systems are SF-539; SK-MEL-28; Malme-3M; A549; NCI/ADR-RES; LOX IMVI; OVCAR-5; HOP-92; SK-MEL-2; COLO 205; KM12; OVCAR-4; A498; SF-268; BT-549; MOLT-4; M14; SN12C; U-251.
Test in all cases: DTP human tumour cell line panel, 48 h

Usually GI50 stands for the concentration that inhibits growth by half. For the compound `C=C1CC(CN2CCC(=O)NC2=O)(c2ccccc2)OC1=O` (stereo not drawn), the GI50 was 13.7 µM (inactive) in the test with SF-539; 13.4 µM (inactive) in the test on SK-MEL-28; 3.53 µM (inactive) with Malme-3M; 16.9 µM (inactive) with A549; 11.6 µM (inactive) with NCI/ADR-RES; 3.75 µM (inactive) in the test on LOX IMVI. Also, the GI50 was 15.1 µM (inactive) in the test on OVCAR-5; 1.45 µM (inactive) in the test with HOP-92; 12.6 µM (inactive) in the test with SK-MEL-2; 2.36 µM (inactive) in the test on COLO 205; 20.9 µM (inactive) with KM12; 1.81 µM (inactive) in the test on OVCAR-4. Besides, the GI50 was 19.2 µM (inactive) in the test on A498; 23.6 µM (inactive) in the test with SF-268; 7.21 µM (inactive) in the test on BT-549; 2.25 µM (inactive) with MOLT-4; 3.08 µM (inactive) in the test with M14; 17.6 µM (inactive) with SN12C. The GI50 in the test on U-251 was 17.7 µM (inactive).

For the compound `O=CCC1CCCCC1`, the GI50 with SF-539, in the test with SK-MEL-28, with Malme-3M, with A549, with NCI/ADR-RES and in the test on LOX IMVI was > 100 µM (inactive) each time. Moreover, the GI50 is > 100 µM (inactive) in the test on OVCAR-5; > 100 µM (inactive) in the test on HOP-92; > 100 µM (inactive) in the test with SK-MEL-2; > 100 µM (inactive) with COLO 205; 88.7 µM (inactive) with KM12; > 100 µM (inactive) in the test on OVCAR-4. Moreover, the GI50 in the test on A498, in the test with SF-268, in the test on BT-549, in the test with MOLT-4, in the test with M14 and with SN12C was > 100 µM (inactive) throughout.

With `COc1ccc(C2Oc3ccc(Cl)cc3C=C2[N+](=O)[O-])cc1OC` (stereo not drawn), the GI50 with SF-539 was 1.55 µM (inactive); in the test with SK-MEL-28, 1.27 µM (inactive); in the test with Malme-3M, 1.75 µM (inactive); with A549, 1.83 µM (inactive); in the test with NCI/ADR-RES, 0.456 µM (active); in the test with LOX IMVI it was 0.32 µM (active). The GI50 in the test on OVCAR-5 was 1.5 µM (inactive); in the test on HOP-92, 1.88 µM (inactive); with SK-MEL-2, 1.48 µM (inactive); in the test with COLO 205 it was 1.16 µM (inactive); in the test on KM12 it was 1.48 µM (inactive); with OVCAR-4 it was 1.93 µM (inactive). The GI50 with A498 is 3.37 µM (inactive); in the test on SF-268 it was 0.617 µM (active); in the test on BT-549, 1.15 µM (inactive); in the test on MOLT-4, 0.216 µM (active); in the test with M14 it was 0.231 µM (active); in the test on SN12C, 0.871 µM (active). In addition, the GI50 in the test on U-251 was 1.05 µM (active).

As to `COc1cc(C#CC(=O)OC/C=C/c2ccc3c(c2)OCO3)cc(OC)c1OC`, the GI50 in the test with SF-539 is 20.7 µM (inactive); in the test with SK-MEL-28, > 100 µM (inactive); in the test with Malme-3M, 20.7 µM (inactive); with A549, 33.7 µM (inactive); in the test on NCI/ADR-RES, 20 µM (inactive); in the test with LOX IMVI, 20.1 µM (inactive). Also, the GI50 in the test with OVCAR-5 is 35.6 µM (inactive); with HOP-92 it was 17.8 µM (inactive); in the test with SK-MEL-2, 10 µM (inactive); with COLO 205, 19.1 µM (inactive); with KM12, 30.4 µM (inactive); in the test on OVCAR-4, 59.7 µM (inactive). Besides, the GI50 is 5.53 µM (inactive) with A498; 19.5 µM (inactive) in the test on SF-268; 19.4 µM (inactive) with BT-549; 24 µM (inactive) in the test with M14; 31.2 µM (inactive) in the test with SN12C; 29.4 µM (inactive) with U-251.

For `COc1ccc(P2(=S)Oc3ccccc3-c3ccccc3O2)cc1`, the GI50 with SF-539 was 0.266 µM (active); in the test with SK-MEL-28 it was > 67.1 µM (inactive); in the test on Malme-3M it was 0.438 µM (active); in the test on A549, 0.449 µM (active); with NCI/ADR-RES, 0.902 µM (active); with LOX IMVI it was 0.661 µM (active). Also, the GI50 is > 100 µM (inactive) in the test on OVCAR-5; 4.18 µM (inactive) in the test with HOP-92; 0.596 µM (active) in the test on SK-MEL-2; 0.343 µM (active) with COLO 205; 0.499 µM (active) in the test on KM12; 4.25 µM (inactive) in the test with OVCAR-4. Also, the GI50 with A498 was 0.306 µM (active); in the test on SF-268 it was 1.5 µM (inactive); in the test on BT-549 it was > 100 µM (inactive); with MOLT-4 it was 0.437 µM (active); with M14, 0.574 µM (active); in the test with SN12C, 0.37 µM (active). The GI50 in the test with U-251 was 0.429 µM (active).

Turning to `CO[C@@H]1C[C@H]2N3CC[C@@]2(c2cc4c(cc2C3)OCO4)[C@H]2O[C@@H]12`, the GI50 with SF-539 was 0.603 µM (active); in the test with SK-MEL-28, > 100 µM (inactive); with Malme-3M, > 100 µM (inactive); in the test with A549, > 100 µM (inactive); in the test with NCI/ADR-RES it was > 100 µM (inactive); with LOX IMVI, > 100 µM (inactive). In addition, the GI50 with OVCAR-5 is > 100 µM (inactive); in the test on HOP-92 it was > 100 µM (inactive); in the test with SK-MEL-2, > 100 µM (inactive); in the test on COLO 205, 0.851 µM (active); in the test on KM12, > 100 µM (inactive); with OVCAR-4, > 100 µM (inactive). For the same compound, the GI50 in the test with A498, in the test on SF-268, in the test with BT-549, in the test with MOLT-4, with M14 and with SN12C was > 100 µM (inactive) throughout. Besides, the GI50 in the test with U-251 is > 100 µM (inactive).

Turning to `COc1cccc(NC(=O)c2c(SC)c(C#N)c(=O)n(N)c2N)c1`, the GI50 is 66.4 µM (inactive) in the test on SF-539; > 100 µM (inactive) in the test on SK-MEL-28; > 100 µM (inactive) in the test on Malme-3M; 57.7 µM (inactive) in the test on A549; 43 µM (inactive) in the test with NCI/ADR-RES; 88.1 µM (inactive) in the test on LOX IMVI. The GI50 with OVCAR-5 is 31.7 µM (inactive); in the test with HOP-92, 47.4 µM (inactive); in the test on SK-MEL-2, > 100 µM (inactive); in the test with COLO 205 it was > 100 µM (inactive); with KM12, > 100 µM (inactive); in the test on OVCAR-4, 40.9 µM (inactive). In addition, the GI50 in the test with A498 is 79.3 µM (inactive); in the test on SF-268 it was 72.1 µM (inactive); with BT-549, 61.8 µM (inactive); with MOLT-4, 41.8 µM (inactive); in the test with M14, 30.6 µM (inactive); in the test on SN12C, > 100 µM (inactive). Moreover, in the test on U-251, the GI50 was 68.4 µM (inactive).

For `NCCc1ccc(S(=O)(=O)O)cc1[N+](=O)[O-]`, the GI50 with SF-539, in the test with SK-MEL-28, in the test on Malme-3M, with A549, in the test with NCI/ADR-RES and in the test with LOX IMVI was > 100 µM (inactive) throughout. Besides, the GI50 in the test with OVCAR-5, in the test with HOP-92, in the test with SK-MEL-2, in the test on COLO 205, in the test on KM12 and with OVCAR-4 was > 100 µM (inactive) each time. Further, the GI50 in the test with A498, with SF-268, in the test on BT-549, in the test on M14, with SN12C and in the test with U-251 was > 100 µM (inactive) in each case.

Turning to `O=S1(=O)NC2CCC3NS(=O)(=O)NC4CCC(N1)N4S(=O)(=O)N23` (stereo not drawn), the GI50 in the test with SF-539, with SK-MEL-28, in the test on Malme-3M, with A549, with NCI/ADR-RES and in the test with LOX IMVI was > 100 µM (inactive) throughout. Moreover, the GI50 with OVCAR-5, with HOP-92, with SK-MEL-2, in the test on COLO 205, in the test on KM12 and in the test on OVCAR-4 was > 100 µM (inactive) each time. Besides, the GI50 in the test with A498, in the test with SF-268, in the test with BT-549, with M14, in the test with SN12C and with U-251 was > 100 µM (inactive) each time.

Consider `Nc1nc(N)c(C2=CCN(Cc3ccccc3)CC2)c(=O)[nH]1`, for which the GI50 in the test on SF-539, in the test on SK-MEL-28, with Malme-3M, in the test with A549, in the test with NCI/ADR-RES and in the test on OVCAR-5 was > 100 µM (inactive) in each case. Besides, the GI50 in the test on HOP-92, in the test on SK-MEL-2, in the test with COLO 205, with KM12, with OVCAR-4 and in the test on A498 was > 100 µM (inactive) in each case. Further, the GI50 in the test on SF-268, in the test on BT-549, with MOLT-4, with M14, with SN12C and with U-251 was > 100 µM (inactive) throughout.

Regarding `C[C@]12CC[C@H]3[C@@H](CC=C4C[C@@H](O)CC[C@@]43C)[C@@H]1C/C(=C/c1ccccc1)[C@@H]2O`, the GI50 with SF-539 was 30.7 µM (inactive); in the test with SK-MEL-28, > 44.6 µM (inactive); with Malme-3M, 27.5 µM (inactive); in the test on A549 it was > 35.6 µM (inactive); with NCI/ADR-RES it was 17.7 µM (inactive); in the test with LOX IMVI, > 33.6 µM (inactive). Besides, the GI50 in the test with OVCAR-5 was > 46.7 µM (inactive); with HOP-92, 32.4 µM (inactive); with SK-MEL-2, 20.9 µM (inactive); in the test with COLO 205 it was > 53.6 µM (inactive); in the test with KM12, 23 µM (inactive); with OVCAR-4, 19.2 µM (inactive). In addition, the GI50 was 17.2 µM (inactive) in the test with A498; 29.3 µM (inactive) with SF-268; 24.1 µM (inactive) with BT-549; > 32.7 µM (inactive) in the test on MOLT-4; > 45.1 µM (inactive) in the test on M14; > 35.9 µM (inactive) in the test with U-251.
